# In patent publication US12319664B2, “Herbicidally active 3-phenylisoxazoline-5-carboxamides of cyclopentenylcarboxylic acid derivatives” (Bayer Aktiengesellschaft, priority 2018, dated 2025):
# Columns and labels:
# [1] = system: ALOMY; test: Pre-emergence herbicidal action against ALOMY; type: in vivo, Alopecurus myosuroides; settings: application rate 80 g/ha, scored visually after about 3 weeks vs untreated controls (100% = plants have died, 0% = like control plants)
# Method in brief: (§1)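 Seeds of weeds and crops sown in pots and covered with soil; WP or EC formulations sprayed onto the soil surface as aqueous suspension/emulsion with 0.5% additive at 600 l/ha water. Greenhouse growth; visual % activity versus untreated controls scored after about 3 weeks (100% = plants dead, 0% = like control).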
# [2] = system: AVEFA; test: Pre-emergence herbicidal action against AVEFA; type: in vivo, Avena fatua; settings: application rate 80 g/ha, scored visually after about 3 weeks vs untreated controls (100% = plants have died, 0% = like control plants)
# Method in brief: as §1
# [3] = system: ECHCG; test: Pre-emergence herbicidal action against ECHCG; type: in vivo, Echinochloa crus-galli; settings: application rate 80 g/ha, scored visually after about 3 weeks vs untreated controls (100% = plants have died, 0% = like control plants)
# Method in brief: as §1
# [4] = system: LOLRI; test: Pre-emergence herbicidal action against LOLRI; type: in vivo, Lolium rigidum; settings: application rate 80 g/ha, scored visually after about 3 weeks vs untreated controls (100% = plants have died, 0% = like control plants)
# Method in brief: as §1
# [5] = system: SETVI; test: Pre-emergence herbicidal action against SETVI; type: in vivo, Setaria viridis; settings: application rate 80 g/ha, scored visually after about 3 weeks vs untreated controls (100% = plants have died, 0% = like control plants)
# Method in brief: as §1
# [6] = system: ABUTH; test: Pre-emergence herbicidal action against ABUTH; type: in vivo, Abutilon theophrasti; settings: application rate 80 g/ha, scored visually after about 3 weeks vs untreated controls (100% = plants have died, 0% = like control plants)
# Description: (§2) 1. Pre-emergence herbicidal action against harmful plants and crop plant compatibility Seeds of monocotyledonous and dicotyledonous weed plants and crop plants are placed in plastic or wood-fibre pots and covered with soil. The compounds of the invention, formulated in the form of wettable powders (WP) or as emulsion concentrates (EC), are then applied onto the surface of the covering soil as aqueous suspension or emulsion with addition of 0.5% additive at a water application rate of 600 l/ha (converted). After the treatment, the pots are placed in a greenhouse and kept under good growth conditions for the trial plants. After about 3 weeks, the effect of the preparations is scored visually in comparison with untreated controls as percentages. For example, 100% activity=the plants have died, 0% activity=like control plants. [table]
# [7] = system: AMARE; test: Pre-emergence herbicidal action against AMARE; type: in vivo, Amaranthus retroflexus; settings: application rate 80 g/ha
# Method in brief: as §1
# [8] = system: MATIN; test: Pre-emergence herbicidal action against MATIN; type: in vivo, Matricaria inodora; settings: application rate 80 g/ha, scored visually after about 3 weeks vs untreated controls (100% = plants have died, 0% = like control plants)
# Description: as §2
# [9] = system: PHBPU; test: Pre-emergence herbicidal action against PHBPU; type: in vivo, Pharbitis purpurea; settings: application rate 80 g/ha
# Method in brief: as §1
# [10] = system: POLCO; test: Pre-emergence herbicidal action against POLCO; type: in vivo, Polygonum convolvulus; settings: application rate 80 g/ha
# Method in brief: as §1
# [11] = system: STEME; test: Pre-emergence herbicidal action against STEME; type: in vivo, Stellaria media; settings: application rate 80 g/ha
# Method in brief: as §1
# [12] = system: VIOTR; test: Pre-emergence herbicidal action against VIOTR; type: in vivo, Viola tricolor; settings: application rate 80 g/ha
# Method in brief: as §1
# [13] = system: VERPE; test: Pre-emergence herbicidal action against VERPE; type: in vivo, Veronica persica; settings: application rate 80 g/ha
# Description: as §2
# [14] = system: HORMU; test: Pre-emergence herbicidal action against HORMU; type: in vivo, Hordeum murinum; settings: application rate 80 g/ha
# Method in brief: as §1
# [15] = system: ALOMY; test: Post-emergence herbicidal action against ALOMY; type: in vivo, Alopecurus myosuroides; settings: application rate 80 g/ha, rated visually after about 3 weeks
# Method in brief: (§3)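 Visual rating of activity (0% = as untreated control, 100% = plants dead) about 3 weeks after treatment. Plants were sprayed at the one-leaf stage, 2 to 3 weeks post-sowing in sandy loam, with WP or EC formulations plus 0.5% additive at 600 l/ha water.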
# [16] = system: AVEFA; test: Post-emergence herbicidal action against AVEFA; type: in vivo, Avena fatua; settings: application rate 80 g/ha, rated visually after about 3 weeks
# Method in brief: as §3
# [17] = system: ECHCG; test: Post-emergence herbicidal action against ECHCG; type: in vivo, Echinochloa crus-galli; settings: application rate 80 g/ha, rated visually after about 3 weeks
# Method in brief: as §3
# [18] = system: LOLRI; test: Post-emergence herbicidal action against LOLRI; type: in vivo, Lolium rigidum; settings: application rate 80 g/ha, rated visually after about 3 weeks
# Method in brief: as §3
# [19] = system: SETVI; test: Post-emergence herbicidal action against SETVI; type: in vivo, Setaria viridis; settings: application rate 80 g/ha, rated visually after about 3 weeks
# Method in brief: as §3
# [20] = system: ABUTH; test: Post-emergence herbicidal action against ABUTH; type: in vivo, Abutilon theophrasti; settings: application rate 80 g/ha, rated visually about 3 weeks after treatment
# Method in brief: as §3
# [21] = system: AMARE; test: Post-emergence herbicidal action against AMARE; type: in vivo, Amaranthus retroflexus; settings: application rate 80 g/ha, rated visually about 3 weeks after treatment
# Method in brief: as §3
# [22] = system: MATIN; test: Post-emergence herbicidal action against MATIN; type: in vivo, Matricaria inodora; settings: application rate 80 g/ha, rated visually about 3 weeks after treatment
# Method in brief: as §3
# [23] = system: PHBPU; test: Post-emergence herbicidal action against PHBPU; type: in vivo, Pharbitis purpurea; settings: application rate 80 g/ha, rated visually about 3 weeks after treatment
# Method in brief: as §3
# [24] = system: POLCO; test: Post-emergence herbicidal action against POLCO; type: in vivo, Polygonum convolvulus; settings: application rate 80 g/ha, rated visually about 3 weeks after treatment
# Method in brief: as §3
# [25] = system: STEME; test: Post-emergence herbicidal action against STEME; type: in vivo, Stellaria media; settings: application rate 80 g/ha, rated visually about 3 weeks after treatment
# Method in brief: as §3
# [26] = system: VIOTR; test: Post-emergence herbicidal action against VIOTR; type: in vivo, Viola tricolor; settings: application rate 80 g/ha, rated visually about 3 weeks after treatment
# Method in brief: as §3
# [27] = system: VERPE; test: Post-emergence herbicidal action against VERPE; type: in vivo, Veronica persica; settings: application rate 80 g/ha
# Method in brief: as §3
# [28] = system: HORMU; test: Post-emergence herbicidal action against HORMU; type: in vivo, Hordeum murinum; settings: application rate 80 g/ha
# Method in brief: as §3
# [29] = system: CYPES; test: Pre-emergence herbicidal action against CYPES; type: in vivo; settings: application rate 80 g/ha, scored visually after about 3 weeks vs untreated controls (100% = plants have died, 0% = like control plants)
# Description: as §2, with “plants.” for “plants. [table]”
SMILES,Herbicidal action against [%] ALOMY [1],Herbicidal action against [%] AVEFA [2],Herbicidal action against [%] ECHCG [3],Herbicidal action against [%] LOLRI [4],Herbicidal action against [%] SETVI [5],Herbicidal action against [%] ABUTH [6],Herbicidal action against [%] AMARE [7],Herbicidal action against [%] MATIN [8],Herbicidal action against [%] PHBPU [9],Herbicidal action against [%] POLCO [10],Herbicidal action against [%] STEME [11],Herbicidal action against [%] VIOTR [12],Herbicidal action against [%] VERPE [13],Herbicidal action against [%] HORMU [14],Herbicidal action against [%] ALOMY [15],Herbicidal action against [%] AVEFA [16],Herbicidal action against [%] ECHCG [17],Herbicidal action against [%] LOLRI [18],Herbicidal action against [%] SETVI [19],Herbicidal action against [%] POLCO [24],other results
C=CC1(C(=O)NC2C=CC(C(=O)OC)C2)CC(c2cc(F)cc(F)c2)=NO1 (stereo not drawn) [Example I-012],100%,90%,100%,100%,100%,90%,100%,90%,90%,90%,100%,90%,100%,90%,90%,100%,90%,90%,90%,80%,Herbicidal action against [%] ABUTH [20]: 80%; Herbicidal action against [%] AMARE [21]: 90%; Herbicidal action against [%] MATIN [22]: 90%; Herbicidal action against [%] PHBPU [23]: 90%; Herbicidal action against [%] STEME [25]: 80%; Herbicidal action against [%] VIOTR [26]: 80%; Herbicidal action against [%] VERPE [27]: 80%; Herbicidal action against [%] HORMU [28]: 100%
CCOC(=O)[C@@H]1C=C[C@H](NC(=O)C2(C)CC(c3cccc(F)c3)=NO2)C1 (stereo partly drawn) [Example I-006],100%,90%,100%,100%,100%,,100%,90%,90%,80%,100%,90%,,90%,80%,80%,80%,80%,,,Herbicidal action against [%] CYPES [29]: 100%; Herbicidal action against [%] PHBPU [23]: 80%; Herbicidal action against [%] STEME [25]: 80%; Herbicidal action against [%] HORMU [28]: 80%
"COC(=O)[C@H]1C=C[C@@H](NC(=O)C2(C)CC(c3cccc(F)c3)=NO2)C1 (stereo partly drawn) [Example I-003, methyl (1R,4S)-4-[[[3-(3-fluorophenyl)-5-methyl-4H-1,2-oxazol-5-yl]carbonyl]amino]cyclopent-2-ene-1-carboxylate]",,,,,,,,,,80%,80%,100%,,,,,,,,80%,Herbicidal action against [%] CYPES [29]: 100%
CN(C)C(=O)C1=CCC(NC(=O)C2(C)CC(c3cccc(F)c3)=NO2)C1 (mixture of isomers) [IV-02],100%,90%,90%,100%,90%,80%,100%,,80%,100%,90%,90%,90%,100%,,,,,,80%,
C=CC1(C(=O)NC2C=CC(C(=O)OCC)C2)CC(c2cc(F)cc(F)c2)=NO1 (stereo not drawn) [Example I-013],100%,100%,100%,100%,100%,90%,100%,100%,90%,90%,100%,100%,90%,100%,80%,90%,80%,90%,90%,90%,Herbicidal action against [%] ABUTH [20]: 80%; Herbicidal action against [%] AMARE [21]: 80%; Herbicidal action against [%] MATIN [22]: 90%; Herbicidal action against [%] PHBPU [23]: 80%; Herbicidal action against [%] STEME [25]: 80%; Herbicidal action against [%] VIOTR [26]: 80%; Herbicidal action against [%] VERPE [27]: 80%; Herbicidal action against [%] HORMU [28]: 90%
CC1(C(=O)NC2C=CC(C(=O)NS(=O)(=O)C(F)(F)F)C2)CC(c2cccc(F)c2)=NO1 (mixture of isomers) [II-16],100%,80%,100%,100%,80%,,90%,80%,,90%,100%,80%,,,,,,80%,80%,,Herbicidal action against [%] CYPES [29]: 100%
